Measurements as given in patent publication USRE49351E1, “Cytoprotective agent” (Biogen MA Inc., priority 2009, dated 2023).

Experiments:
[1] = H-ORAC (hydrophilic oxygen radical absorbance capacity) assay; assay type: biochemical; conditions: sodium salt aqueous solution, phosphate buffer pH 7.4
Protocol: (§1) To study the free radical scavenging activity of a triprenyl phenol compound, the following H-ORAC (hydrophilic oxygen radical absorbance capacity) assay, and modified H-ORAC (mH-ORAC) assay were conducted.
(§2) SMTP compounds evaluated by H-ORAC were used respectively in a form of a sodium salt aqueous solution, and the compounds evaluated by mH-ORAC were used respectively in a form of an acetone solution.
(§3) In H-ORAC a test compound was diluted appropriately with a buffer solution (75 mM phosphate buffer solution, pH 7.4) and used for measurement. In mH-ORAC a test compound was diluted appropriately by a 50% (v/v) acetone solution, prepared by diluting an acetone solution with water, to prepare a solution of 40-fold the final concentration. […] As for the reference material Trolox, 500 μM/buffer solution was diluted appropriately with a buffer solution.
(§4) To a 96-well microplate (transparent, flat bottom, black wall) 50 μL of a test compound solution or a Trolox solution was placed, and additionally 100 μL of a fluorescein 140 nM/buffer solution as a fluorescent substance was added (final concentration 70 nM), followed by incubation at 37° C. for […].
(§5) As a free radical generator, 50 μL of a 48 mM/buffer solution of 2,2′-azobis(amidinopropane)dihydrochloride was added (final concentration 12 mM), and fluorescence intensity at fluorescence wavelength of 535 nm with excitation wavelength of 485 nm was measured at 2 min intervals for 90 min. The calibration curve was prepared between the Trolox final concentrations of 5 to 15 μM. The measurement was conducted by changing the concentration with n=3, and plotted on a diagram with time on the abscissa and the fluorescence intensity on the ordinate. Therewith evaluation was made using the value obtained by reducing the area under the curve for the blank from the area under the curve for the sample. The result was expressed as an equivalent to Trolox.

[2] = test system: Mongolian gerbil cerebral infarction model; assay: Mongolian gerbil cerebral infarction model (acetic acid-induced thrombus): infarction area percentage and neurological symptom; assay type: in vivo; conditions: for Infarction area: evaluated 24 h; for Infarction area / Neurological scores: mean ± SE, n=6; for Neurological scores: score 0-4 at 24 h; for improvement rate of the infarction area percentage: 10 mg/kg, administration initiated 1 hour after the initiation of ischemia
Source text: Anesthesia was induced to a male Mongolian gerbil (body weight 55 to 65 g) by inhalation of 5% isoflurane (trade name Escain, Mylan Inc.), and maintained with 1 to 1.5% isoflurane. The Mongolian gerbil was fixed in a dorsal position, and the neck was dehaired and then disinfected with 70% ethanol. After median incision of the neck, the right common carotid artery was detached, clamped to block the blood flow temporarily, and coated with 100% acetic acid by 30 reciprocating motions so as to produce a thrombus. The blood vessel was reopened after 10 min of the blockage of the blood flow to transfer the thrombus by the blood stream into the brain to make it ischemic and generate cerebral infarction. The operating field was closed with an instant adhesive (trade name Aron Alpha (Krazy Glue), Toagosei Co., Ltd.) and disinfected with 70% ethanol.
Twenty four hours after the initiation of the operation neurological symptoms were observed as an indicator for cerebral infarction. Many types of neurological symptoms specific to cerebral infarction, such as extension of a hindlimb or circling to one direction, have been reported. Applying a modified evaluation method of the method proposed by Longa, et al. (Stroke 1989; 20:84-91) postoperative neurological symptoms were evaluated as per: no deficit, 0; extension of limb, 1; circling to one direction, 2; incline posture, 3; diminished motion, 4.
With respect to statistical analysis, for multiple comparisons was conducted firstly one-way analysis of variance (ANOVA) and then a Bonferroni test was conducted, if significant difference is detected. Significant difference was positively recognized with significance level 5% (P<0.05). All the results are expressed in mean±standard error.
After the evaluation of neurological symptoms according to the above method, the animal was decapitated under anesthesia with isoflurane. The cranial bone was exfoliated of skin and opened, and, after scission of optic nerve, the brain was extirpated and dipped in a physiological saline solution to remove attached body hairs, etc. The extirpated brain was placed in a brain matrix (RBM-1000C, ASI Instruments) to carry out coronal slicing from the frontal pole at thickness of 2 mm. The slices were dipped in 2% 2,3,5-triphenyl-2H-tetrazolium chloride (TTC), and incubated for staining at 37° C. for 30 min in a CO2 incubator. The colorless TTC is reduced by hydrogen liberated by the action of dehydrogenase contained in a normal cell converting to dark red colored water-insoluble 1,3,5-triphenylformazan (TPF), so that the normal cell is stained. Unstained area (white area) was defined as an infarction area. Meanwhile, the corpus callosum, which is commissural fibers connecting the right and left cerebral hemispheres, is not stained and is white, and therefore image processing for the analyses as described below was conducted excluding the corpus callosum.
After staining images of the brain slices were taken by a digital camera under a stereoscopic microscope. For analysis of the infarction area percentage, an image analysis software Image J (Version 1.4) was used. Full, excluding the corpus callosum, images of the taken 2nd, 3rd, and 4th brain slice images were converted to grayscale. From the grayscale images a histogram for the whole brain as the object scope was obtained showing in the ordinate the frequency of occurrence (frequency) at certain brightness, and showing in the abscissa the brightness (0 to 255). The sum from 0 to 255 was defined as the area size of the whole brain, and the sum from 160 to 219 was defined as the area size of the infarction area. Then the infarction area percentage was determined according to the following formula using the total area size of the infarction areas and the total area size of the whole brain, of the 3 brain slice images. Statistical analysis was conducted as above. […]

[3] = modified H-ORAC (mH-ORAC) assay; assay type: biochemical; conditions: acetone solution, acetone final concentration 1.25%
Protocol: as §1, §2, §3, §4, §5

[4] = 1 mg/kg i.v., administration initiated 1 hr after ischemia
[5] = 10 mg/kg i.v., administration initiated 1 hr after ischemia
[6] = 10 mg/kg i.v., administration initiated 3 hr after ischemia
[7] = 10 mg/kg i.v., administration initiated 6 hr after ischemia
[8] = 0.01 mg/kg i.v., administration initiated 1 hr after ischemia
[9] = 0.1 mg/kg i.v., administration initiated 1 hr after ischemia

| Compound | free radical scavenging activity, Trolox equivalent [1] | Infarction area [2, 4] | Neurological scores [2, 4] | Infarction area [2, 5] | Neurological scores [2, 5] | Infarction area [2, 6] | Neurological scores [2, 6] | Infarction area [2, 7] | Neurological scores [2, 7] | improvement rate of the infarction area percentage [2] | free radical scavenging activity, Trolox equivalent [3] | Infarction area [2, 8] | Neurological scores [2, 8] | Infarction area [2, 9] | Neurological scores [2, 9] |
| --- | --- | --- | --- | --- | --- | --- | --- | --- | --- | --- | --- | --- | --- | --- | --- |
| CC(C)=CCC/C(C)=C/CCC1(C)Oc2c(c(O)cc3c2CN(C(Cc2c[nH]c4ccccc24)C(=O)O)C3=O)CC1O (centres unmarked) [SMTP-6] | 3.73 ± 0.42 molTE/mol |  |  |  |  |  |  |  |  |  |  |  |  |  |  |
| CC(C)=CCC/C(C)=C/CC[C@@]1(C)Oc2c(c(O)cc3c2CN(CCC[C@@H](C(=O)O)N2Cc4c(cc(O)c5c4O[C@](C)(CC/C=C(\C)CCC=C(C)C)[C@@H](O)C5)C2=O)C3=O)C[C@@H]1O [SMTP-7] | 2.08 ± 0.13 molTE/mol | 11.4 ± 2.69% | 2.67 ± 0.33 | 7.01 ± 0.56 % | 1.50 ± 0.67 | 5.90 ± 0.36 % | 1.67 ± 0.61 | 7.93 ± 1.64 % | 2.00 ± 0.45 | 65.7% | 1.82 ± 0.27 molTE/mol |  |  |  |  |
| alteplase [reference compound] |  |  |  | 5.43 ± 1.33 % | 0.17 ± 0.17 | 11.0 ± 3.61% | 1.33 ± 0.67 | 13.8 ± 2.40% | 3.17 ± 0.48 | 78.9% |  | 11.2 ± 2.74% | 2.67 ± 0.56 | 9.67 ± 2.35% | 2.00 ± 0.77 |
